# In patent US6664086B2, “cDNA, genomic, and predicted protein sequences of learning-induced kinases” (priority 1998, dated 2003):
# “Also recorded” adds a separate entry of the source. Starred links: 1 amine or outer side, 2 acyl side, 3 side chain; linkers in the order of their positions; H or OH if unused. Positions of bridges follow the written chain, without caps; N, C: chain ends. Non-standard residues stand in square brackets, D forms with d. Residues, ends and D or L forms follow the SMILES beside them. Chains are numbered I, II in the order given. Actinocin(9to1) = Cc1c2oc3c(C)ccc(C(=O)[*:1])c3nc-2c(C(=O)[*:2])c(N)c1=O; NMeV = CN[C@H](C(=O)O)C(C)C; Sar = CNCC(=O)O
# How the values were obtained:
# [1] = test system: eyeblink/nictitating membrane conditioned responses (CRs); infusion into dorsal anterior IN; assay: Eyeblink conditioning after drug infusion into the interpositus nucleus (IN); type: in vivo, New Zealand White male rabbits (Oryctolagus cuniculus)
# Method: Rabbits underwent eyeblink training 30 min. after infusion of 1 ng of actinomycin D (ActD) or artificial cerebrospinal fluid (ACSF) into the dorsal anterior IN ipsilateral to the trained eye. Rabbits were trained with 10 paired tone-air trials per day to insure that ActD could act during learning (see Methods). […] Most animals in the experimental group reached criterion after 5 days of additional training without drug infusion.
# New Zealand White male rabbits (Oryctolagus cuniculus), weighing between 2 and 3 kg were individually housed at the University of Southern California Hedco Neuroscience Building vivariunm with a 12-hr light and dark cycle. The experiment was conducted during the light phase of the cycle. Rabbits had ad lib access to food and water.
# (§1) Stainless steel guide cannulas (25 ga) were implanted in the head of the animals with the tip fixed at 1.5 to 2.0 mm dorsal to the IN ipsilateral to the eye to be trained (left) (stereotaxic coordinates from lambda: 0.8 mm anterior, 5.2 mm lateral, and 14.0 mm ventral). Each guide cannula was filled with an inner stainless steel stylet designed to keep the guide cannula patent. Animals were given 5 days to recover from surgery. At infusion the stylet was removed and an inner cannula (31 ga) was inserted to the target locus. Delivery of fluids through the inner cannula was accomplished by a 10 μl Hamilton syringe driven by a syringe pump. Fluids were delivered to the target area at a rate of 0.38 μl per min for 2.6 min. For the experimental group, 1 ng of ActD (in 1 μl of vehicle) was infused daily 30 min prior to the start of each training session for 5 days (n=7). […] The animals were given 2 days rest and then trained for 5 more days without drug infusion. At training day 11, the experimental group was treated with 1 μg muscimol which is known to reversibly inactivate the IN (Krupa and Thompson, 1997). For the control group, 1 μl of ACSF (vehicle) was infused into the IN for 5 days (n=5). At day 6, control animals were infused with 1 ng of ActD 30 min prior to training. On training day 7, 1 μg of muscimol was infused.
# For the infusion experiments, all animals were subjected to eye-blink conditioning under the delay paradigm. The rabbits were allowed one day (1 hour) of habituation to the restrainer and the behavioral recording chamber. On the following day, paired tone-airpuff training began. For each day, the training session began 30 min post drug infusion and we gave only 10 trials/day (instead of the standard 100 trials per day, see below) in order to maximize the possibility that ActD was acting on the learning process before the long term memory had been well established. The tone CS was a 350 ms, 1000 Hz., 85 dB tone and the airpuff US was a 100 ms puff of air (3 psi at the source) delivered to the rabbit's cornea, the CS and US coterminating. The mean intertrial interval (ITI) was 60±10 sec. Nictitating membrane (NNI) conditioned responses (CRs) were measured using a minitorque potentiometer attached to a small loop of monofilament nylon thread on the NM of the rabbit's left, eye. Output of the potentiometer was digitized and recorded by computer. A conditioned response was defined as any NM extension response greater than 0.5 mm that occurred after tone onset but before airpuff onset. The intra- and intertrial timing, stimulus presentations, data collection and analysis were performed by a PC with a program written in Forth and machine language (Lavond and Steinmetz, 1989b).
# IN tissue = assay: Pilot dose studies of ActD infusion into the IN (tissue damage); type: in vivo, New Zealand White male rabbits (Oryctolagus cuniculus); settings: e.g. 5 ng, infused into IN
# Text: as §1, with “For the experimental group, 1 ng of ActD (in 1 μl of vehicle) was infused daily 30 min prior to the start of each training session for 5 days (n=7).” left out
# eyeblink conditioning = settings: infusion into the IN, rabbit (Bracha and Bloedel, 1996); cited from earlier work
smiles,measurement,setting,value
"Cc1c2oc3c(C)ccc(C(=O)N[C@@H]4C(=O)N[C@H](C(C)C)C(=O)N5CCC[C@H]5C(=O)N(C)CC(=O)N(C)[C@@H](C(C)C)C(=O)O[C@@H]4C)c3nc-2c(C(=O)N[C@@H]2C(=O)N[C@H](C(C)C)C(=O)N3CCC[C@H]3C(=O)N(C)CC(=O)N(C)[C@@H](C(C)C)C(=O)O[C@@H]2C)c(N)c1=O [ActD, actinomycin D] (I: T[dV]P[Sar][NMeV] / II: T[dV]P[Sar][NMeV]; ester I:1-I:C, II:1-II:C; linker I:N-II:N via Actinocin(9to1))",Acquisition of conditioned responses (CRs) during 5 days of training,"[1]; 1 ng infused into IN daily 30 min before training, 5 days, 10 paired CS-US trials per day, n=7, vs ACSF",low levels of CRs; also recorded: completely prevents learning; also recorded: inhibited eyeblink conditioning
same,Expression of already acquired CRs,[1]; 1 ng infused into IN on day 6 in control animals conditioned under ACSF (n=5),did not prevent expression of acquired CRs; also recorded: no effect on the performance of CRs
same,CRs on training without drug after ActD treatment (reversibility),"[1]; experimental group, 2 days rest, then training days 6-10 without drug infusion",gradual increase of CRs
same,Tissue damage at higher doses,IN tissue,caused permanent damage to the tissue
COc1ccc(C[C@H]2NC[C@H](O)[C@H]2OC(C)=O)cc1 [anisomycin],Effect on eyeblink conditioning,eyeblink conditioning,interfered with conditioning
NCc1cc(=O)[nH]o1 [muscimol],"Expression of CRs, experimental group day 11","[1]; 1 μg infused into IN at day 11, experimental group after retraining",completely abolished the expression of CRs
same,"Expression of CRs, control group day 7","[1]; 1 μg infused into IN on day 7, conditioned control animals",completely abolished the CRs
